No end group written: not given here.
Key:
[1] = tested on: Pseudomonas aeruginosa (ATCC 27853); type: cell-based; conditions: for MBC value (μg/ml) against Pseudomonas aeruginosa: ATCC 27853, 1 h; for MBC Pseudomonas aeruginosa: Tables 11-15, no unit printed
Method in brief: (§1)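 Bacteria grown in 3% TSB at 37° C, diluted in 10 mM sodium phosphate/1% TSB to 1×10^5 CFU/ml in wells, exposed to peptides (0–300 μg/ml) for 1 h at 37° C. Mixtures plated on TS agar for 18 h at 37° C; MBC is the lowest concentration giving no colonies.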

[2] = tested on: Staphylococcus aureus (ATCC 29213); type: cell-based; conditions: for MBC value (μg/ml) against Staphylococcus aureus: ATCC 29213, 1 h; for MBC Staphylococcus aureus: Tables 11-15, no unit printed
Method in brief: as §1

[3] = tested on: methicillin-resistant Staphylococcus aureus (ATCC 33591); conditions: for MBC value (μg/ml) against methicillin-resistant Staphylococcus aureus: ATCC 33591, 4 h; for MBC MRSA: Tables 11-15, no unit printed
[4] = tested on: multidrug-resistant Pseudomonas aeruginosa; conditions: 4 h
Experimental: First, each of Pseudomonas aeruginosa (ATCC 27853) and Staphylococcus aureus (ATCC 29213) was cultured in 3% (w/v) TSB (Tryptic Soy Broth) liquid medium at 37° C. and 200 rpm for 4 hours, and then further cultured under the same conditions for 3 hours to a concentration of 5×10^6 CFU/ml. Strain solutions were prepared by diluting each of the further cultured strains with SP (sodium phosphate; 10 mM sodium phosphate, 1% TSB) buffer to a final concentration of 2×10^5 CFU/ml.
(§2) Then, each peptide at varying concentrations (0 μg/ml to 300 μg/ml) was dispensed into each well of a 96-well microplate, and 100 μl (1×10^5 CFU/ml) of each of the prepared strain solutions was added thereto, mixed therewith, and allowed to react with the peptide in an incubator at 37° C. for 1 hour.
In addition, 30 g/L of TS (tryptic soy) and 15 g/L of agar were dissolved in distilled water and sterilized, and then 25 ml of the solution was poured onto a 100 mm round plate and solidified at room temperature for one day or more, thereby preparing a TS agar plate. 10 μl of each reaction solution of the peptide and the strain was plated on the TS agar plate at a constant size, and incubated in an incubator at 37° C. for 18 hours, and then colony formation on the plate was checked.
Specifically, each type of bacteria was cultured in 3% (w/v) TSB (Tryptic Soy Broth) liquid medium at 37° C. and 200 rpm for 4 hours, and then further cultured under the same conditions for 3 hours to a concentration of 5×10^6 CFU/ml. Strain solutions were prepared by diluting each of the […] of 2×10^5 CFU/ml.
as §2, with “Then, the KU-5878” for “Then, each”
In addition, 10 μl of each reaction solution of the peptide and the strain was plated on the TS agar plate at a constant size, and incubated in an incubator at 37° C. for 18 hours, and then colony formation on the plate was checked.
Meanwhile, the multidrug-resistant Pseudomonas aeruginosa, multidrug-resistant Acinetobacter and multidrug-resistant Klebsiella in Table 2 below were bacteria isolated from patients at Korea University Anam Hospital. […] Then, these bacteria were used in the experiment.

CRPA = test: MBC, evaluation of antibacterial activities of KU-5878 variants; type: cell-based; conditions: Tables 11-15, no unit printed

Sequence | MBC value (μg/ml) against Pseudomonas aeruginosa [1] [µg/mL] | MBC Pseudomonas aeruginosa [1] [µg/mL] | MBC value (μg/ml) against Staphylococcus aureus [2] [µg/mL] | MBC Staphylococcus aureus [2] [µg/mL] | MBC value (μg/ml) against methicillin-resistant Staphylococcus aureus [3] [µg/mL] | MBC MRSA [3] [µg/mL] | MBC value (μg/ml) against multidrug-resistant Pseudomonas aeruginosa [4] [µg/mL] | MBC CRPA (CRPA) [µg/mL]
KTMMQKGGTFGTFMAIGMGIR [KU-5878-S63K] | 60 | 60 | 50 | 50 | 60 | 50 | 60 | 50
KTMMKSGGTFGTFMAIGMGIR [KU-5878-Q62K] | 90 | 90 | 80 | 80 | 85 | 90 | 90 | 90
KKMMKKGGTFGTFMAIGMGIR [KU-5878-K3] | 4 | 4 | 4 | 4 | 5 | 5 | 4 | 4

From US12053506B2, “Romo1-derived antimicrobial peptides and variants thereof” (priority 2019, dated 2024)
